# In BindingDB's records for doi:10.7270/Q2B27SQ0 (Nmmlsc, 2008):
# Counter-ions that a name gives are not always drawn.
# Target: Apoptosis regulator Bcl-2 (Homo sapiens, UniProt P10415)
# Assay: PubChem AID 950
# Conditions: not given
# Apoptosis regulator Bcl-2, sequence (P10415 whole entry): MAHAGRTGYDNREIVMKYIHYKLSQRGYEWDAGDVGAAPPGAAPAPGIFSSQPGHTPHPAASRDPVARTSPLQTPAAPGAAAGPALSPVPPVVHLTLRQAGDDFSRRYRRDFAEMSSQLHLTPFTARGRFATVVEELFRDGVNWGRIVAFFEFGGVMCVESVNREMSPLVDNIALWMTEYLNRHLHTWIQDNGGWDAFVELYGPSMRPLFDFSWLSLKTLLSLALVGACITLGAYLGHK
row,Structure (SMILES),EC50
1,"COc1ccc(CC(=O)Nc2ccc(-c3nc4cc(C)ccc4o3)c(O)c2)cc1OC [2-(3,4-dimethoxyphenyl)-N-[(4Z)-3-keto-4-(5-methyl-3H-1,3-benzoxazol-2-ylidene)cyclohexa-1,5-dien-1-yl]acetamide]",10 µM
2,CCN1/C(=C/C(C)=C/c2sc3ccccc3[n+]2CC)Sc2ccccc21 [SMR000354813],22.4 µM
3,COc1ccc2c3c(cccc13)N(C)N=C2C [MLS000554700],2.01 µM
4,"C=CCn1c(SCC(=O)Nc2ccc3c(c2)OCO3)nnc1-c1cc(Br)ccc1O [2-[[(5Z)-4-allyl-5-(3-bromo-6-keto-cyclohexa-2,4-dien-1-ylidene)-1H-1,2,4-triazol-3-yl]thio]-N-(1,3-benzodioxol-5-yl)acetamide]",15.8 µM
5,"COc1cc(CN=Nc2nn3cnnc3c3ccccc23)ccc1O [(4E)-2-methoxy-4-[[2-([1,2,4]triazolo[3,4-a]phthalazin-6-yl)hydrazinyl]methylidene]cyclohexa-2,5-dien-1-one]",8.47 µM
6,Clc1ccc2c(N=NCc3ccccc3Br)ccnc2c1 [MLS000336087],9.15 µM
7,"COc1cc(/C=C2\CC/C(=C\c3cc(OC)c(O)c(OC)c3)C2=O)cc(OC)c1O [(2E,5E)-2,5-bis[(4-hydroxy-3,5-dimethoxyphenyl)methylidene]cyclopentan-1-one]",5.13 µM
8,c1ccc(-c2nc(N3CCOCC3)[s+]n2-c2ccccc2)cc1,13.8 µM
9,Nc1c(C(=O)NC2CC2)sc2nc3c(c(-c4ccco4)c12)CC/C3=C/c1ccco1 [SMR000259554],4.67 µM
10,"CCC(=O)N(CC)C1C(=O)C(=O)c2ccccc2C1=O (stereo not given) [N-ethyl-N-(1-hydroxy-3,4-dioxo-2-naphthalenyl)propanamide]",0.98 µM

# The remaining lines, values ahead:
row,EC50,Structure (SMILES)
1,13.7 µM,Cc1cc(N)ccc1N1CCCC1 [3-methyl-4-(1-pyrrolidinyl)aniline;hydrochloride]
2,6.65 µM,CCOC(=O)C1CCN(C(=O)Nc2ccc3nc(-c4ccco4)c(-c4ccco4)nc3c2)CC1 [MLS000113285]
3,2.33 µM,"O=C1/C(=C\c2ccc(-c3ccccc3Cl)o2)SC(=S)N1CC1CCCO1 (stereo not given) [(5E)-5-[[5-(2-chlorophenyl)furan-2-yl]methylidene]-3-(oxolan-2-ylmethyl)-2-sulfanylidene-1,3-thiazolidin-4-one]"
4,42.3 µM,CN1CCc2cccc3c2[C@H]1Cc1ccc(O)c(O)c1-3 [APOMORPHINE HYDROCHLORIDE]
5,16.1 µM,CCC(/C=C1\Sc2ccc(OC)cc2N1CCO)=C\c1sc2ccc(OC)cc2[n+]1CCO
6,17.9 µM,OCCN1CCN(CCCc2c3c(cc4c2CCC4)CCC3)CC1 [MLS000698424]
7,5.26 µM,Nc1c(C(=O)NCC2CCCO2)sc2nc3c(c(-c4ccco4)c12)CC/C3=C\c1ccco1 (stereo not given) [SMR000259502]
8,23.7 µM,"CN(C)[C@@H]1C(=O)C(C(=O)NCN2CCCC2)C(=O)[C@@]2(O)C(=O)C3C(=O)c4c(O)cccc4[C@@](C)(O)C3CC12 (stereo partly drawn) [(2Z,4S,6S,12aS)-4-(dimethylamino)-6,10,11,12a-tetrahydroxy-2-[hydroxy-(1-pyrrolidinylmethylamino)methylidene]-6-methyl-4,4a,5,5a-tetrahydrotetracene-1,3,12-trione]"
9,16.1 µM,CN1CCc2cccc3c2[C@@H]1Cc1ccc(O)c(O)c1-3

# Same assay, conditions: inactive by the depositor's call
row,Structure (SMILES),EC50
1,COc1ccc(/C=C/C(=O)c2cc(Br)ccc(=O)c2O)cc1 [MLS000702099],33.6 µM
2,Clc1nc(NCc2cccnc2)nc(N2CCOCC2)n1 [MLS000121154],24.9 µM
3,O=C(Nc1ccc2nc(-c3ccco3)c(-c3ccco3)nc2c1)NC1CC1 [SMR000118524],9.26 µM
4,Cc1ccc(NC2=C(NC(=O)c3ccccc3)C(=O)c3ccccc3C2=O)cc1Cl [MLS000392290],4.38 µM
5,COc1ccc(-n2c(=O)c3ccccc3c3ccccc3c2=O)c(OC)c1,13.4 µM
6,CCOC(=O)c1nc(Nc2ccc(C(=O)OC)cc2)c2ccccc2n1 [ethyl 4-(4-methoxycarbonylanilino)quinazoline-2-carboxylate],15.2 µM
7,"O=C(NC1=C(NC2CCS(=O)(=O)C2)C(=O)c2ccccc2C1=O)c1ccccc1 (stereo not given) [N-[3-[(1,1-dioxo-3-thiolanyl)amino]-1,4-dioxo-2-naphthalenyl]benzamide]",19.7 µM
8,CCOC(=O)c1c(O)nc2ccc(Cl)c3c2c1-c1ccccc1C3=O [MLS000704595],7.65 µM
9,"O=C(Nc1ccc(N2CCOCC2)cc1)Nc1ccc2nc(-c3ccco3)c(-c3ccco3)nc2c1 [N-(2,3-di-2-furyl-6-quinoxalinyl)-N'-[4-(4-morpholinyl)phenyl]urea]",8.89 µM
10,Cc1ccc(C)c(/C=C/C(=O)c2ccccc(=O)c2O)c1,19.4 µM
11,"O=C(Nc1ccccc1)c1ccc2nc(-c3ccco3)c(-c3ccco3)nc2c1 [2,3-di-2-furyl-N-phenyl-6-quinoxalinecarboxamide]",36.5 µM
12,C/C(=C\c1ccco1)C1Nc2cccc3cccc(c23)N1 [MLS000055728],14.2 µM
13,"COc1ccc(CCNC(=O)c2ccc3nc(-c4ccco4)c(-c4ccco4)nc3c2)cc1OC [N-[2-(3,4-dimethoxyphenyl)ethyl]-2,3-di-2-furylquinoxaline-6-carboxamide]",13.6 µM
14,"c1ccc(Nc2cccc(Nc3ccccc3)n2)cc1 [N,N'-diphenyl-2,6-pyridinediamine]",2.79 µM
15,COCCCn1c(N)c(C(=O)Nc2sc3c(c2C(=O)OC)CCCC3)c2nc3ccccc3nc21 [MLS000595323],1.95 µM
16,CCN1C(=O)/C(=C/C=C2\C=CN(CC)c3ccccc32)SC1=S,35.3 µM
17,Cc1ccc(C=NNC(=O)CSc2nnc(-c3ccc(Cl)cc3)n2-c2ccccc2)o1 [SMR000218122],8.45 µM
18,c1ccc(C2=Nc3cccc4cccc(c34)N2)cc1,26.5 µM
19,"Cc1nc2ncccn2c1-c1csc(Nc2ccccc2)n1 [4-(2-methyl-3-imidazo[1,2-a]pyrimidinyl)-N-phenyl-2-thiazolamine]",8.93 µM
20,COc1cc2nc(=S)[nH]c(NCCc3ccc(S(N)(=O)=O)cc3)c2cc1OC [MLS000674601],0.54 µM
21,Cc1ccc(C(=O)/C=C/c2ccc(-c3ccc(C)cc3)o2)cc1 [1-p-Tolyl-3-(5-p-tolyl-furan-2-yl)-propenone],3.08 µM
22,"COc1ccc2nc(-c3ccco3)c(-c3ccco3)nc2c1 [2,3-di-2-furyl-6-methoxyquinoxaline]",14.4 µM
23,CNc1ccc(Br)cc(C(=O)/C=C/c2cc(OC)ccc2OC)c1=O [SMR000115626],8.97 µM
24,Cc1cccc(OCC(=O)NCC(=O)NN=Cc2cc(Br)ccc2OCc2ccccc2)c1 [N-[(5-bromanyl-2-phenylmethoxy-phenyl)methylideneamino]-2-[2-(3-methylphenoxy)ethanoylamino]ethanamide],5.73 µM

# Continued, values first:
row,EC50,Structure (SMILES)
1,0.21 µM,CN(C)c1ncc(C2=C(Cl)C(=O)C(N3CCCC3)=C(Cl)C2=O)s1
2,0.16 µM,CN1CCN(C2=C(Cl)C(=O)C(c3cnc(N4CCCCC4)s3)=C(Cl)C2=O)CC1
3,46.3 µM,"Cc1cc(-c2csc(N)n2)c(C)n1C [4-(1,2,5-trimethyl-3-pyrrolyl)-2-thiazolamine]"
4,15.9 µM,Cc1cc2n(c1)CCn1c(C)ccc1-2 [MLS000104384]
5,8.86 µM,O=C(Nc1ccc2nc(-c3ccco3)c(-c3ccco3)nc2c1)N1CCN(c2ccccn2)CC1
6,27.9 µM,O=C1c2ccccc2-c2onc3ccc(N4CCCC4)c1c23 [SMR000279741]
7,44.6 µM,Cc1ccc(-c2ccc(/C=C3\SC(N4CCOCC4)=NC3=O)o2)cc1 [(5Z)-5-[[5-(4-methylphenyl)-2-furanyl]methylidene]-2-(4-morpholinyl)-4-thiazolone]
